Experiment: in vitro
Conditions: human, hela cells, % viability

Compound	viability at 28.5 h, 10 µM [%]	viability at 28.5 h, 10 µM (bulk resorufin, single well) [%]
Cc1cc(S(=O)(=O)CC#N)c(C)cc1Cl [CBK018672]	89.2	–
CC1OCN(c2ccc(C(C)(C)C)cc2)Cn2c1nc1ccccc12 (stereo not drawn) [CBK018706]	88	–
CCN(CC)S(=O)(=O)c1c(C)[nH]c(=O)[nH]c1=O [CBK018721]	94.1	–
Cc1c(-c2ccnc(N)n2)nnn1-c1ccc(Cl)cc1Cl [CBK018733]	65.5	–
O=[N+]([O-])c1ccc(N/N=C/c2cnn(-c3ccccc3)c2)cc1 [CBK018746]	94	–
N#C/C(=N/Nc1ccc(Br)cc1)C1=NC(=O)CS1 [CBK018747]	96	–
CC(C)(C)SCCNc1nc(Cl)nc(N2CCSCC2)n1 [CBK018768]	80.2	–
CC(C)c1cc(C(C)C)c(S(=O)(=O)n2cnc3c2c(=O)[nH]c(=O)n3C)c(C(C)C)c1 [CBK018772]	107	–
CCc1nnc(NC(=O)COC(=O)CSc2nc(C)cc(C)n2)s1 [CBK018792]	90.9	–
S=C(Nc1ccccc1Cl)Nc1ccccc1-n1cccc1 [CBK018806]	81.6	–
CC(C)(C)C1CCC(=NNC(=O)c2ccc(CN3CCOCC3)cc2)CC1 (stereo not drawn) [CBK018812]	97.9	–
CNCS(=O)(=O)C(F)(F)S(=O)(=O)N(C)C [CBK018820]	89.7	–
O=c1nc(NN=C2CCCCC2)cn[nH]1 [CBK018838]	90.8	–
CCCc1nnc(C(=O)NC(=O)NCCCN(C)C)s1 [CBK018853]	84.3	–
COc1ccc(C2SCCCS2)cc1C(C)(C)C [CBK018886]	105	–
COc1ccc(/N=C(/Nc2cccc(C(F)(F)F)c2)SC)cc1 [CBK018896I]	98.4	–
O=C(Nc1cccc(C(F)(F)F)c1)c1cnsn1 [CBK018923]	88.9	–
O=C(O)CSc1nnc2ccc(C(F)(F)F)cn12 [CBK018930]	81.3	–
CC1=NN(C(=O)NS(=O)(=O)c2ccccc2Cl)C(C)(C)C1 [CBK018947]	120	–
COc1cc(Cl)nnc1Cl [CBK018956]	108	–
CC1(c2ccc(Br)cc2)NC(=O)CS1 (stereo not drawn) [CBK018962]	92.2	–
O=C(NC(S(=O)O)C(F)(F)F)OCc1ccccc1 (stereo not drawn) [CBK018979]	87	–
C1CN2CCC1/C(=N\Nc1nnn[nH]1)C2 [CBK019005C]	93.8	–
CN(C)c1nc2n(c(=O)n1)CCS2 [CBK019025]	92.3	–
CC(=O)Nc1ccc(-c2nc[nH]c2Br)cc1 [CBK019063]	88	–
COC(=O)c1ccc(SCc2nc(N3CCOCC3)c3c(c2C#N)CC(C)(C)OC3)o1 [CBK019077]	114	–

Compound	viability at 28.5 h, 10 µM [%]	viability at 28.5 h, 10 µM (bulk resorufin, single well) [%]
FC(F)(F)c1csc(Nc2ccc(Cl)c(Cl)c2)n1 [CBK019093]	85.6	–
CC(C)(C)NCCN1CCn2c1nc1ccccc12 [CBK019113]	82	–
CC1CCCC(C)N1c1nn(C)c(=O)[nH]1 (stereo not drawn) [CBK019114]	100	–
Cc1ccc(C)n1C1CC(C)(C)NC(C)(C)C1 [CBK019116]	91.1	–
COc1ccc2sc(Br)c(C(=O)O)c2c1 [CBK019180]	103	–
COC(=O)CNC(c1ccccc1)c1cc(Br)ccc1N (stereo not drawn) [CBK019222]	96.8	–
Cc1cc(=O)[nH]c(SCC(=O)O)c1C#N [CBK019224]	116	–
Cc1cc(Oc2ccc(Cl)cc2Cl)nc(OCC#N)n1 [CBK019232]	96.9	–
O=S1(=O)CCC(SCc2ccccc2)C1 (stereo not drawn) [CBK019237]	89.1	–
CN(C)c1ccc(/C=N/N=C2\NC(=O)CS2)cc1 [CBK019273]	60.6	–
O=C(CN1CCOCC1)c1ccc(O)o1 [CBK019286]	95.4	–
Cc1ccc(C(=O)C2CCN(S(=O)(=O)c3ccc(Cl)c(Cl)c3)CC2)cc1 [CBK019294]	106	–
CCCCCCC1N=NC(c2ccc(F)cc2)=CN1O (stereo not drawn) [CBK019298]	94.8	–
O=S1(=O)N=C(c2cccs2)C=C(C(F)(F)F)N1 [CBK019309]	106	–
COc1nc(OC)nc(Sc2ccc(N)cc2)n1 [CBK019319]	88.3	–
N#Cc1c(-c2ccc(Cl)cc2)c[nH]c1N [CBK019323]	104	–
CC(C)(C)OC(=O)N(Cc1cccs1)S(C)(=O)=O [CBK019338]	94.1	–
CN1CCN(CC(=O)N/N=C/C2CC=CCC2)CC1 (stereo not drawn) [CBK019340]	89.6	–
CCP(CC)c1ccc(C(=O)O)cc1 [CBK019342B]	91.1	–
CSc1ccc(CN(C)CCN(C)C)cc1 [CBK019349]	97.9	–
CC1CN(C2(n3nnc4ccccc43)CCC(C(C)(C)C)CC2)CC(C)O1 (stereo not drawn) [CBK019373]	98.5	–
O=S(=O)(c1ccc(C2=CSC3=NCCN23)cc1)N1CCOCC1 [CBK019381]	101	–
CSc1nn(C)c(=S)c2c3c(oc12)CCC3 [CBK019474]	92.3	–
CCOC(=O)N/N=C(/C)c1ccc(Br)s1 [CBK019480]	93.5	–
CS(=O)(=O)CS(=O)(=O)C1=C(N2CCOCC2)C2CCN1CC2 [CBK019499]	87.5	–
CCOc1sc(=S)n(C)c1C(C)=O [CBK019515]	88	–

Compound	viability at 28.5 h, 10 µM [%]	viability at 28.5 h, 10 µM (bulk resorufin, single well) [%]
O=C(CSc1cccs1)Nc1nccs1 [CBK019601]	88.7	–
N#Cc1sc(N)c2ccc(-c3ccncc3)nc12 [CBK019761]	105	–
NC(=O)NCc1ccc(F)cc1 [CBK019769]	110	–
O=C1OC(c2c(O)nc(=O)[nH]c2O)c2ccccc21 (stereo not drawn) [CBK019775]	–	113
O=[N+]([O-])c1cc(-c2nc(-c3ccco3)c(-c3ccco3)[nH]2)ccc1Br [CBK019778]	86.3	–
CO/N=C(N)/C(N)=N/OC [CBK019780]	98.4	–
Cc1ccc(CSc2cnc(C(C)(C)C)nc2)cc1 [CBK019832]	112	–
O=C1NC(=O)c2c(NC(=O)C3CCCCC3)cccc21 [CBK019837]	88.3	–
N/C(=N\O)c1ccc(OC(F)(F)F)cc1 [CBK019865]	97.2	–
COc1nc(N)nc(C/C(=N\NC(=O)c2cccnc2)C2CC2)n1 [CBK019872]	90.9	–
COc1ccc(-c2sc(C(=O)O)c(C)c2C#N)cc1 [CBK019922]	101	–
O=S1(=O)N=C(c2c(O)nc3ccccc3c2O)Nc2ccccc21 [CBK019929]	90.7	–
CCSc1nc(SCC)c2c3c([nH]c2n1)CCCC3 [CBK019936]	94.6	–
CC(C)(C)c1cc2cc(NC(=O)C3CC3)ccc2[nH]1 [CBK019994]	115	–
Nc1nnc(Sc2nccc(C(F)(F)F)n2)s1 [CBK020023]	99.5	–
CNC(=S)NCc1ccncc1 [CBK020033]	106	–
CCOC(=O)NC(=S)NC(=O)C(C)(C)C [CBK020037]	100	–
FC(F)(F)c1nnc2ccc(-n3ccnc3)nn12 [CBK020041]	96.1	–
O=S(=O)(c1ccccc1)C1C2C=CC(COC3CCCCO3)(O2)C1S(=O)(=O)c1ccccc1 (stereo not drawn) [CBK020045]	92.6	–
CCOC(=O)c1c2c([nH]c(=S)c1C#N)CCCC2 [CBK020049]	97.6	–
CCN(CC)c1ccc(/C=N/NC(=O)CC2=NNC(=O)C2)cc1 [CBK020059]	91.8	–
O=C(Cn1cncn1)c1ccc2c(c1)CCO2 [CBK020087]	93.5	–
CC1CC(=O)C2=C(C1)NN=C(c1cccc(C(F)(F)F)c1)C2 (stereo not drawn) [CBK020138]	86.9	–
CN(C)CCN(Cc1ccccn1)c1ncccn1 [CBK020142]	116	–
CCCCc1c(Cl)nc(C#N)c2c1CCCC2 [CBK020252]	98.9	–
O=S1(=O)N=c2cc3c(c4cccc1c24)=Nc1ccccc1N3 [CBK020253]	89.9	–

Compound	viability at 28.5 h, 10 µM [%]	viability at 28.5 h, 10 µM (bulk resorufin, single well) [%]
CN1CCN(CCP(=O)(c2ccccc2)c2ccccc2)CC1 [CBK020260]	94.1	–
CC1CC(/N=C2/NCCS2)CC(C)(C)C1 (stereo not drawn) [CBK020293]	102	–
CCCc1onc(S(=O)(=O)c2ccc(C)cc2)c1NC [CBK020322]	84.3	–
CC(=O)C(C)Oc1ccccc1-n1cccc1 (stereo not drawn) [CBK020334]	95.9	–
O=C(O)CCn1oc(=O)c2ccccc21 [CBK020340]	89.8	–
O=C1C=C(OCc2ccccc2)CN1 [CBK020360]	94.4	–
CC1(C)CN(c2ccc(S(N)(=O)=O)cc2)C1=O [CBK020416]	90.6	–
CCCCc1nccn1CCn1ccnc1CCCC [CBK020437]	88.7	–
c1csc(-c2cnc3ccccc3n2)c1 [CBK020525]	93.2	–
O=C(NCCc1nc2ccccc2[nH]1)c1cccs1 [CBK020529]	99.4	–
COc1ccc(OC)c(/N=C2\CC(=O)CC(C)(C)C2)c1 [CBK020541]	106	–
O=C(O)CNCCC(=O)c1ccc([N+](=O)[O-])cc1 [CBK020544]	87	–
CCOC(=O)c1ncoc1-c1ccc(Cl)cc1Cl [CBK020578]	90.2	–
CC(=O)Cn1nnnc1C [CBK020588]	99.6	–
CC(C)CS(=O)(=O)Nc1ccc(F)cc1F [CBK020615]	91.9	–
OCCSCc1ccc2nonc2c1 [CBK020617]	107	–
CN(C)C(c1ccc2c(c1)OCO2)c1nnnn1C1CCCCC1 (stereo not drawn) [CBK020620]	103	–
O=C1CSC(c2cccc(Cl)c2Cl)N1C1CCCCC1 (stereo not drawn) [CBK020678]	96.7	–
O=C(Nc1ccc2[nH]c(C3CCCCC3)nc2c1)C1CCCCC1 [CBK020680]	87.7	–
CC(C)(C)SCCNC(=S)NCCO [CBK020686]	98.7	–
CSc1cc(C)c(O)c(CO)c1 [CBK020687]	85.7	–
CCc1c(C)nc2nnc(NC(=O)C(F)(F)F)n2c1O [CBK020762]	102	–
COc1nc(OC)nc(OC2=CC(=O)CC(C)(C)C2)n1 [CBK020772]	95.5	–
CC1=C(CCN2CCCC(CO)C2)C(C)(C)CCC1 (stereo not drawn) [CBK020827]	88.2	–

— article PMC12040169 (PLOS Biology, 2025)
